Like-named read-outs stand apart in the source and are kept apart here.
Experiments:
[1] = molecular target: T1, Hsp90 in C. albicans (SC5314) lysate (Candida albicans, UniProt P46598); experiment: biochemical; format: binding; settings: SC5314 lysate
T1 construct: endogenous in cells; host or cells: C. albicans SC5314 whole-cell lysate

C. albicans Hsp90 NBD = molecular target: T2, C. albicans Hsp90 NBD (Candida albicans, UniProt P46598); experiment: biochemical; format: binding; settings: 0.1 nM Cy3-GdA, C. albicans NBD-Hsp90 (10 nM); for FP signal (raw) / FP signal as fraction of no-compound (0 uM) control: Experiments 1-3
T2 construct: C. albicans Hsp90 (E7-K218); made in house; host or cells: E. coli Rosetta2
T2 sequence (P46598 7-218): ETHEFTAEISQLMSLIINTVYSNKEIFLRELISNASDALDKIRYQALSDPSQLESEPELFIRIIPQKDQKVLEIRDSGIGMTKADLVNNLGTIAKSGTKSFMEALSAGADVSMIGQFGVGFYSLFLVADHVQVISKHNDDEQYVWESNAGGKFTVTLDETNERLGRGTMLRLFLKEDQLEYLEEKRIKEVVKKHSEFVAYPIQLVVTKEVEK

Hsp90 in 3T3 lysate = experiment: FP competition in whole-cell lysate; format: binding, mouse; settings: 3T3 lysate
Procedure: After vortexing, cell lysate was frozen at −80 °C for 2 h, followed by thawing on ice. The vortex-freeze-thaw step was repeated. […] Aliquots were thawed immediately prior to use.

human Hsp90 NBD = human Hsp90 NBD (Homo sapiens, UniProt P08238); settings: 0.1 nM Cy3-GdA, Human NBD-Hsp90 (10 nM); for FP signal (raw) / FP signal as fraction of no-compound (0 uM) control: Experiments 1-3
human Hsp90 NBD, sequence (P08238 1-223): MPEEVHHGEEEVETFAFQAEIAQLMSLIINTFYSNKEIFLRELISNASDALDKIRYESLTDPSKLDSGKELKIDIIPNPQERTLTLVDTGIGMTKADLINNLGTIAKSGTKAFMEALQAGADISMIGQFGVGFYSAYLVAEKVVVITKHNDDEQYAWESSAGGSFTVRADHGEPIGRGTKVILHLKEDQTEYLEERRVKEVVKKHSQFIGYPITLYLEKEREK

human Grp94 NBD = human Grp94 NBD (Homo sapiens, UniProt P14625); settings: 0.1 nM Cy3-GdA; for FP signal (raw) / FP signal as fraction of no-compound (0 uM) control: Experiments 1-3
human Grp94 NBD, sequence (P14625 63-337): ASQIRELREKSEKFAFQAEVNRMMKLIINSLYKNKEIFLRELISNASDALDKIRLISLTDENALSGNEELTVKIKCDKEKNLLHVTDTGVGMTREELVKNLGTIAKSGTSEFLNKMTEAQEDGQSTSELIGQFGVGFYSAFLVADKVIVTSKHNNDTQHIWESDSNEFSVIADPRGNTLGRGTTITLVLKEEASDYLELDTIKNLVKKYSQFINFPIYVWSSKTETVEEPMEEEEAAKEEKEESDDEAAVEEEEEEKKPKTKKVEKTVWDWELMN

Hsp90 in HEPG2 lysate = settings: HepG2 lysate
[2] = Experiments 1-3, one value per experiment

T1 sequence (P46598 whole entry): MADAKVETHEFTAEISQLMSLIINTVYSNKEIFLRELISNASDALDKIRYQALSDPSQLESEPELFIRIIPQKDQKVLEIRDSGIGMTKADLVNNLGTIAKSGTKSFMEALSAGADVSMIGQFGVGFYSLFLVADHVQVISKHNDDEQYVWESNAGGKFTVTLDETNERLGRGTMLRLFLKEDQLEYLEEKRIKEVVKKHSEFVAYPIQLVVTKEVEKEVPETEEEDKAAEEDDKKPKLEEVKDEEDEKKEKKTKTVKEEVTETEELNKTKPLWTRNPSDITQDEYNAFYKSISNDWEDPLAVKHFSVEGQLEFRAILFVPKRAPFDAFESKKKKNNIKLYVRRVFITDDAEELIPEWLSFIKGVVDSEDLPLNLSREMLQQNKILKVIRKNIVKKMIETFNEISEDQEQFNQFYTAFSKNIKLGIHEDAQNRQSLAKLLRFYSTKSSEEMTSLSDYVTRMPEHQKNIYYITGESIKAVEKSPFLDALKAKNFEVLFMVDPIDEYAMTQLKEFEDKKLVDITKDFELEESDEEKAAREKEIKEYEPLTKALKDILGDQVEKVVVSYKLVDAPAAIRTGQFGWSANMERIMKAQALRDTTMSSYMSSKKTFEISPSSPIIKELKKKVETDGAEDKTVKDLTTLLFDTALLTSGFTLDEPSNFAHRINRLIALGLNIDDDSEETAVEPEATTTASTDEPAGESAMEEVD

`COc1ccc(CON=C2C=CC=CC3OC3CC(C)OC(=O)c3c(O)cc(O)cc3C2)cc1` (mixture of isomers) [CMLD075] was tested, and the “FP signal (raw)” value ([1]; 0.002 uM) was 169, the “FP signal, fraction of control” value ([1]; 0.002 uM) was 0.8989 and the “FP signal (raw)” value ([1]; 0.004 uM) was 160. For the same molecule, the “FP signal, fraction of control” value ([1]; 0.004 uM) was 0.8511, the “FP signal (raw)” value ([1]; 0.008 uM) was 155 and the “FP signal, fraction of control” value ([1]; 0.008 uM) was 0.8245. The “FP signal (raw)” value ([1]; 0.01 uM) was 60, the “FP signal, fraction of control” value ([1]; 0.01 uM) was 0.3226 and the “FP signal (raw)” value ([1]; 0.016 uM) was 142. The “FP signal, fraction of control” value ([1]; 0.016 uM) was 0.7553, the “FP signal (raw)” value ([1]; 0.02 uM) was 50 and the “FP signal, fraction of control” value ([1]; 0.02 uM) was 0.2688. The “FP signal (raw)” value ([1]; 0.063 uM) was 103, the “FP signal, fraction of control” value ([1]; 0.063 uM) was 0.5479 and the “FP signal (raw)” value ([1]; 0.078 uM) was 24. The “FP signal, fraction of control” value ([1]; 0.078 uM) was 0.129, the “FP signal (raw)” value ([1]; 0.25 uM) was 60 and the “FP signal, fraction of control” value ([1]; 0.25 uM) was 0.3191. For the same molecule, the “FP signal (raw)” value ([1]; 0.313 uM) was 14, the “FP signal, fraction of control” value ([1]; 0.313 uM) was 0.07527 and the “FP signal (raw)” value ([1]; 0.5 uM) was 38. For the same molecule, the “FP signal, fraction of control” value ([1]; 0.5 uM) was 0.2021, the “FP signal (raw)” value ([1]; 0.625 uM) was 7 and the “FP signal, fraction of control” value ([1]; 0.625 uM) was 0.03763. The “FP signal (raw)” value ([1]; 1 uM) was 6, the “FP signal, fraction of control” value ([1]; 1 uM) was 0.03191 and the “FP signal (raw)” value ([1]; 2 uM) was 0. For the same molecule, the “FP signal, fraction of control” value ([1]; 2 uM) was 0, the “FP signal (raw)” value ([1]; 2.5 uM) was 3 and the “FP signal, fraction of control” value ([1]; 2.5 uM) was 0.01613. For the same molecule, the “FP signal (raw)” value ([1]; 5 uM) was 0, the “FP signal, fraction of control” value ([1]; 5 uM) was 0 and the “FP signal (raw)” value ([1]; 10 uM) was -4. The “FP signal, fraction of control” value ([1]; 10 uM) was -0.02151, the EC50 ([1]; fit against log conc uM, read-out: EC50) was 0.102 µM and the EC50 (C. albicans Hsp90 NBD; [2]) was 47.8 nM. For the same molecule, the “FP signal (raw)” value (C. albicans Hsp90 NBD; Cmpd 0.002 uM) was 81, the “FP signal as fraction of no-compound (0 uM) control” value (C. albicans Hsp90 NBD; Cmpd 0.002 uM) was 0.8526 and the “FP signal (raw)” value (C. albicans Hsp90 NBD; Cmpd 0.004 uM) was 80. The “FP signal as fraction of no-compound (0 uM) control” value (C. albicans Hsp90 NBD; Cmpd 0.004 uM) was 0.8421, the “FP signal (raw)” value (C. albicans Hsp90 NBD; Cmpd 0.008 uM) was 78 and the “FP signal as fraction of no-compound (0 uM) control” value (C. albicans Hsp90 NBD; Cmpd 0.008 uM) was 0.8211. For the same molecule, the “FP signal (raw)” value (C. albicans Hsp90 NBD; Cmpd 0.016 uM) was 72, the “FP signal as fraction of no-compound (0 uM) control” value (C. albicans Hsp90 NBD; Cmpd 0.016 uM) was 0.7579 and the “FP signal (raw)” value (C. albicans Hsp90 NBD; Cmpd 0.063 uM) was 36. The “FP signal as fraction of no-compound (0 uM) control” value (C. albicans Hsp90 NBD; Cmpd 0.063 uM) was 0.3789, the “FP signal (raw)” value (C. albicans Hsp90 NBD; Cmpd 0.25 uM) was 16 and the “FP signal as fraction of no-compound (0 uM) control” value (C. albicans Hsp90 NBD; Cmpd 0.25 uM) was 0.1684. For the same molecule, the “FP signal (raw)” value (C. albicans Hsp90 NBD; Cmpd 0.5 uM) was 10, the “FP signal as fraction of no-compound (0 uM) control” value (C. albicans Hsp90 NBD; Cmpd 0.5 uM) was 0.1053 and the “FP signal (raw)” value (C. albicans Hsp90 NBD; Cmpd 1 uM) was 7. The “FP signal as fraction of no-compound (0 uM) control” value (C. albicans Hsp90 NBD; Cmpd 1 uM) was 0.07368, the “FP signal (raw)” value (C. albicans Hsp90 NBD; Cmpd 2 uM) was 8 and the “FP signal as fraction of no-compound (0 uM) control” value (C. albicans Hsp90 NBD; Cmpd 2 uM) was 0.08421. The “FP signal (raw)” value (Hsp90 in 3T3 lysate; 0.01 uM) was 243, the “FP signal, fraction of control” value (Hsp90 in 3T3 lysate; 0.01 uM) was 0.9681 and the “FP signal (raw)” value (Hsp90 in 3T3 lysate; 0.02 uM) was 243. For the same molecule, the “FP signal, fraction of control” value (Hsp90 in 3T3 lysate; 0.02 uM) was 0.9681, the “FP signal (raw)” value (Hsp90 in 3T3 lysate; 0.078 uM) was 240 and the “FP signal, fraction of control” value (Hsp90 in 3T3 lysate; 0.078 uM) was 0.9562. The “FP signal (raw)” value (Hsp90 in 3T3 lysate; 0.313 uM) was 223, the “FP signal, fraction of control” value (Hsp90 in 3T3 lysate; 0.313 uM) was 0.8884 and the “FP signal (raw)” value (Hsp90 in 3T3 lysate; 0.625 uM) was 206. For the same molecule, the “FP signal, fraction of control” value (Hsp90 in 3T3 lysate; 0.625 uM) was 0.8207, the “FP signal (raw)” value (Hsp90 in 3T3 lysate; 2.5 uM) was 144 and the “FP signal, fraction of control” value (Hsp90 in 3T3 lysate; 2.5 uM) was 0.5737. For the same molecule, the “FP signal (raw)” value (Hsp90 in 3T3 lysate; 5 uM) was 102, the “FP signal, fraction of control” value (Hsp90 in 3T3 lysate; 5 uM) was 0.4064 and the “FP signal (raw)” value (Hsp90 in 3T3 lysate; 10 uM) was 52. For the same molecule, the “FP signal, fraction of control” value (Hsp90 in 3T3 lysate; 10 uM) was 0.2072, the EC50 (Hsp90 in 3T3 lysate; fit against log conc uM) was 3.42 µM and the EC50 (human Hsp90 NBD; [2]) was 1250 nM. For the same molecule, the “FP signal (raw)” value (human Hsp90 NBD; Cmpd 0.002 uM) was 100, the “FP signal as fraction of no-compound (0 uM) control” value (human Hsp90 NBD; Cmpd 0.002 uM) was 0.9615 and the “FP signal (raw)” value (human Hsp90 NBD; Cmpd 0.004 uM) was 101. The “FP signal as fraction of no-compound (0 uM) control” value (human Hsp90 NBD; Cmpd 0.004 uM) was 0.9712, the “FP signal (raw)” value (human Hsp90 NBD; Cmpd 0.008 uM) was 101 and the “FP signal as fraction of no-compound (0 uM) control” value (human Hsp90 NBD; Cmpd 0.008 uM) was 0.9712. The “FP signal (raw)” value (human Hsp90 NBD; Cmpd 0.016 uM) was 99, the “FP signal as fraction of no-compound (0 uM) control” value (human Hsp90 NBD; Cmpd 0.016 uM) was 0.9519 and the “FP signal (raw)” value (human Hsp90 NBD; Cmpd 0.063 uM) was 96. The “FP signal as fraction of no-compound (0 uM) control” value (human Hsp90 NBD; Cmpd 0.063 uM) was 0.9231, the “FP signal (raw)” value (human Hsp90 NBD; Cmpd 0.25 uM) was 85 and the “FP signal as fraction of no-compound (0 uM) control” value (human Hsp90 NBD; Cmpd 0.25 uM) was 0.8173. For the same molecule, the “FP signal (raw)” value (human Hsp90 NBD; Cmpd 0.5 uM) was 85, the “FP signal as fraction of no-compound (0 uM) control” value (human Hsp90 NBD; Cmpd 0.5 uM) was 0.8173 and the “FP signal (raw)” value (human Hsp90 NBD; Cmpd 1 uM) was 59. The “FP signal as fraction of no-compound (0 uM) control” value (human Hsp90 NBD; Cmpd 1 uM) was 0.5673, the “FP signal (raw)” value (human Hsp90 NBD; Cmpd 2 uM) was 28 and the “FP signal as fraction of no-compound (0 uM) control” value (human Hsp90 NBD; Cmpd 2 uM) was 0.2692. The EC50 (human Grp94 NBD; [2]) was 261 nM, the “FP signal (raw)” value (human Grp94 NBD; Cmpd 0.002 uM) was 93 and the “FP signal as fraction of no-compound (0 uM) control” value (human Grp94 NBD; Cmpd 0.002 uM) was 0.9208. The “FP signal (raw)” value (human Grp94 NBD; Cmpd 0.004 uM) was 89, the “FP signal as fraction of no-compound (0 uM) control” value (human Grp94 NBD; Cmpd 0.004 uM) was 0.8812 and the “FP signal (raw)” value (human Grp94 NBD; Cmpd 0.008 uM) was 88. For the same molecule, the “FP signal as fraction of no-compound (0 uM) control” value (human Grp94 NBD; Cmpd 0.008 uM) was 0.8713, the “FP signal (raw)” value (human Grp94 NBD; Cmpd 0.016 uM) was 85 and the “FP signal as fraction of no-compound (0 uM) control” value (human Grp94 NBD; Cmpd 0.016 uM) was 0.8416. The “FP signal (raw)” value (human Grp94 NBD; Cmpd 0.063 uM) was 73, the “FP signal as fraction of no-compound (0 uM) control” value (human Grp94 NBD; Cmpd 0.063 uM) was 0.7228 and the “FP signal (raw)” value (human Grp94 NBD; Cmpd 0.25 uM) was 51. The “FP signal as fraction of no-compound (0 uM) control” value (human Grp94 NBD; Cmpd 0.25 uM) was 0.505, the “FP signal (raw)” value (human Grp94 NBD; Cmpd 0.5 uM) was 33 and the “FP signal as fraction of no-compound (0 uM) control” value (human Grp94 NBD; Cmpd 0.5 uM) was 0.3267. The “FP signal (raw)” value (human Grp94 NBD; Cmpd 1 uM) was 15, the “FP signal as fraction of no-compound (0 uM) control” value (human Grp94 NBD; Cmpd 1 uM) was 0.1485 and the “FP signal (raw)” value (human Grp94 NBD; Cmpd 2 uM) was 11. For the same molecule, the “FP signal as fraction of no-compound (0 uM) control” value (human Grp94 NBD; Cmpd 2 uM) was 0.1089, the “FP signal (raw)” value (Hsp90 in HEPG2 lysate; 0.01 uM) was 200 and the “FP signal, fraction of control” value (Hsp90 in HEPG2 lysate; 0.01 uM) was 0.9132. The “FP signal (raw)” value (Hsp90 in HEPG2 lysate; 0.02 uM) was 199, the “FP signal, fraction of control” value (Hsp90 in HEPG2 lysate; 0.02 uM) was 0.9087 and the “FP signal (raw)” value (Hsp90 in HEPG2 lysate; 0.078 uM) was 186. For the same molecule, the “FP signal, fraction of control” value (Hsp90 in HEPG2 lysate; 0.078 uM) was 0.8493, the “FP signal (raw)” value (Hsp90 in HEPG2 lysate; 0.313 uM) was 164 and the “FP signal, fraction of control” value (Hsp90 in HEPG2 lysate; 0.313 uM) was 0.7489. The “FP signal (raw)” value (Hsp90 in HEPG2 lysate; 0.625 uM) was 146, the “FP signal, fraction of control” value (Hsp90 in HEPG2 lysate; 0.625 uM) was 0.6667 and the “FP signal (raw)” value (Hsp90 in HEPG2 lysate; 2.5 uM) was 88. The “FP signal, fraction of control” value (Hsp90 in HEPG2 lysate; 2.5 uM) was 0.4018, the “FP signal (raw)” value (Hsp90 in HEPG2 lysate; 5 uM) was 53 and the “FP signal, fraction of control” value (Hsp90 in HEPG2 lysate; 5 uM) was 0.242. For the same molecule, the “FP signal (raw)” value (Hsp90 in HEPG2 lysate; 10 uM) was 32, the “FP signal, fraction of control” value (Hsp90 in HEPG2 lysate; 10 uM) was 0.1461 and the EC50 (Hsp90 in HEPG2 lysate; fit against log conc uM) was 1.8 µM.
